Data reported in patent publication US20050101595A1, “N-containing cycloalkyl-substituted amino-thiazole derivatives and pharmaceutical compositions for inhibiting cell proliferation and methods for their use” (PFIZER INC., priority 2003, published 2005).
Where a name gives a salt, the structure may show the parent alone. Read-outs that look alike come from different tables or passages of the source.

Experiments:
CDK2/Cyclin A = CDK2/Cyclin A (Homo sapiens, UniProt P24941); test: Inhibition of CDK2/Cyclin A Retinoblastoma Kinase Activity; assay type: biochemical; conditions: for Ki: apparent Ki, CDK2/proteolyzed cyclin A, Rb fragment substrate, 25 μM ATP; for CDK2 % Inhibition At 0.03 μM: Table 2
In short: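 Human CDK2, baculovirus/insect-cell expressed, complexed with proteolyzed cyclin A (10 nM or 19 nM CDK2) phosphorylates an Rb fragment with 25 μM [32P/33P]ATP at pH 7.4, 30° C, for 60 or 75 minutes under initial-rate conditions. Filter-captured radioactivity is read by phosphorimager; apparent Ki from competitive-inhibition fits.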

[1] = target: human CDK4 and genetically truncated (1-264) cyclin D3 (Homo sapiens, UniProt P11802); test: Inhibition of CDK4/Cyclin D Retinoblastoma Kinase Activity; assay type: biochemical; conditions: for Ki: apparent Ki, CDK4/truncated cyclin D3, Rb fragment substrate, 25 μM ATP
In short: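 Read-out: 32P/33P incorporation into Rb fragment (386-928) captured on nitrocellulose, phosphorimager. Enzyme 5 nM CDK4/cyclin D3(1-264) from insect cells; ATP 25 μM, pH 7.4, 30 °C, 20 min (60 min for tight binders). Ki from competitive fits.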

HCT-116 cell line = test: Inhibition of cell growth, tetrazolium salt (MTT) assay; assay type: cell-based; conditions: for IC50: Homo sapiens, HCT-116, 120 h, MTT, three to five days, read-out: HCT-116 IC50; for HCT-116 % Inhibition at 0.25 μM: 0.25 μM compound
In short: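 First, cells were seeded in McCoy's 5A medium and held 4 h. Next, inhibitor concentrations in 0.5% (v/v) DMSO were applied for three to five days at 37° C, 5% CO2. Finally, after 4 h with 0.2 mg/mL MTT and medium removal, solubilized formazan was measured at 540 nm.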

[2] = 0.1 μM compound, HCT-116, Table 4
[3] = 0.1 μM compound, HCT-116, Table 3

Chain of human CDK4 and genetically truncated (1-264) cyclin D3 (P11802 whole entry, the tested form may be a part): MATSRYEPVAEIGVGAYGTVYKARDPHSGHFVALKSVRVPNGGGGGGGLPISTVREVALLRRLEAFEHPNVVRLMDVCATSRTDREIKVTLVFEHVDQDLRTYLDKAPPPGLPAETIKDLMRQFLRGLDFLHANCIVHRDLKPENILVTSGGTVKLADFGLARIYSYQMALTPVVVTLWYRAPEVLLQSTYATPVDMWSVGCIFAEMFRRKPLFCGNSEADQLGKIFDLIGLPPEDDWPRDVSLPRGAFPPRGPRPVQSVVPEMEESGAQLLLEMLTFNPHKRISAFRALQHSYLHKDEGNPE
Chain of human CDK4 and genetically truncated (1-264) cyclin D3 (P30281 1-264 partner): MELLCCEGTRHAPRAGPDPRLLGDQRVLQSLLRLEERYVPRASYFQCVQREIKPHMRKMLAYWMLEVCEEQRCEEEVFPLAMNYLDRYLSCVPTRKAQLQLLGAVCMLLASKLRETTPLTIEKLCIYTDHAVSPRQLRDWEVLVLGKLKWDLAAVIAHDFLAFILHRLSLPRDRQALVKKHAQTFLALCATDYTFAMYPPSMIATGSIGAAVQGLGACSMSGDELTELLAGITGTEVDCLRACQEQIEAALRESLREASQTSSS

CN1CC[C@H](c2ccc(S(=O)(=O)N3CCC(Nc4nc(N)c(C(=O)c5c(F)cccc5F)s4)CC3)cc2)C1 [Example F52, (4-Amino-2-{1-[4-(1-methyl-pyrrolidin-3R-yl)-benzenesulfonyl]-piperidin-4-ylamino}-thiazol-5-yl)-(2,6-difluoro-phenyl)-methanone]
Ki (CDK2/Cyclin A): 1 nM
Ki [1]: 0.52 nM
IC50 (HCT-116 cell line; first HCT-116 column (c4)): 93 nM
IC50 (HCT-116 cell line; second HCT-116 column (c5)): 500 nM

Nc1nc(NC2CCN(C(=O)c3ccccc3I)CC2)sc1C(=O)c1c(F)cccc1F [Example Q52]
CDK2 % Inhibition at 0.03 μM (CDK2/Cyclin A; 0.03 μM compound, Table 4): 24%
CDK4 % Inhibition at 0.03 μM ([1]; 0.03 μM compound, Table 4): 53%
HCT-116 % Inhibition at 0.1 μM (HCT-116 cell line; [2]): 0%
HCT-116 % Inhibition at 0.25 μM (HCT-116 cell line; HCT-116, Table 4): 24%

Nc1nc(NC2CCN(S(=O)(=O)CCCSc3ccncc3)CC2)sc1C(=O)c1c(F)cccc1F [Example K23, 1-(4-Amino-2-{1-[3-(pyridin-4-ylsulfanyl)-propane-1-sulfonyl]-piperidin-4-ylamino}-thiazol-5-yl)-1-(2,6-difluoro-phenyl)-methanone.]
Ki (CDK2/Cyclin A): 2.8 nM
Ki [1]: 3 nM
IC50 (HCT-116 cell line; first HCT-116 column (c4)): 460 nM
IC50 (HCT-116 cell line; second HCT-116 column (c5)): > 500 nM

CCOC(=O)c1cccc(NC(=O)N2CCC(Nc3nc(N)c(C(=O)c4c(F)cccc4F)s3)CC2)c1 [Example O46]
CDK2 % Inhibition At 0.03 μM (CDK2/Cyclin A; 0.03 μM compound): 29%
CDK4 % Inhibition at 0.03 μM ([1]; 0.03 μM compound, Table 2): 15%
HCT-116 % Inhibition at 0.25 μM (HCT-116 cell line; HCT-116, Table 2): 41%

COc1ccc(C(=O)N2CCC(Nc3nc(N)c(C(=O)c4c(F)cccc4F)s3)CC2)c(OC)c1 [Example R8]
CDK2 % Inhibition at 0.03 μM (CDK2/Cyclin A; at 0.03 μM): −11%
CDK4 % Inhibition at 0.03 μM ([1]; at 0.03 μM): 13%
HCT-116 % Inhibition at 0.1 μM (HCT-116 cell line; HCT-116 cells, at 0.1 μM): 8%
HCT-116 5 Inhibition at 0.25 μM (HCT-116 cell line; HCT-116 cells): 41

Nc1nc(NC2CCN(S(=O)(=O)c3ccc(CNC(=O)c4ccccc4)s3)CC2)sc1C(=O)c1c(F)cccc1F [Example P40]
CDK2 % Inhibition at 0.03 μM (CDK2/Cyclin A; 0.03 μM compound, Table 3): 61%
CDK4 % Inhibition at 0.03 μM ([1]; 0.03 μM compound, Table 3): 64%
HCT-116 % Inhibition at 0.1 μM (HCT-116 cell line; [3]): 7%
HCT-116 % Inhibition at 0.25 μM (HCT-116 cell line; HCT-116, Table 3): 33%

CCCNC(=O)N1CCC(Nc2nc(N)c(C(=O)c3c(F)cccc3F)s2)CC1 [Example O33]
CDK2 % Inhibition At 0.03 μM (CDK2/Cyclin A; 0.03 μM compound): 30%
CDK4 % Inhibition at 0.03 μM ([1]; 0.03 μM compound, Table 2): −3%
HCT-116 % Inhibition at 0.25 μM (HCT-116 cell line; HCT-116, Table 2): 31%

Nc1nc(NC2CCN(C(=O)c3ccccc3)CC2)sc1C(=O)c1c(F)cccc1F [Example Q9]
CDK2 % Inhibition at 0.03 μM (CDK2/Cyclin A; 0.03 μM compound, Table 4): 13%
CDK4 % Inhibition at 0.03 μM ([1]; 0.03 μM compound, Table 4): 52%
HCT-116 % Inhibition at 0.1 μM (HCT-116 cell line; [2]): 0%
HCT-116 % Inhibition at 0.25 μM (HCT-116 cell line; HCT-116, Table 4): 36%

CN(C)CCN(C)Cc1ccc(S(=O)(=O)N2CCC(Nc3nc(N)c(C(=O)c4c(F)cccc4F)s3)CC2)cc1 [Example J9, 1-{4-Amino-2-[1-(4-{[(2-dimethylamino-ethyl)-methyl-amino]-methyl}-benzenesulfonyl)-piperidin-4-ylamino]-thiazol-5-yl}-1-(2,6-difluoro-phenyl)-methanone Hydrochloride Salt.]
Ki (CDK2/Cyclin A): 2.4 nM
Ki [1]: 0.85 nM
IC50 (HCT-116 cell line; first HCT-116 column (c4)): 130 nM
IC50 (HCT-116 cell line; second HCT-116 column (c5)): 320 nM

Nc1nc(NC2CCN(C(=O)CC3CCCC3)CC2)sc1C(=O)c1c(F)cccc1F [Example R96]
CDK2 % Inhibition at 0.03 μM (CDK2/Cyclin A; at 0.03 μM): −20%
CDK4 % Inhibition at 0.03 μM ([1]; at 0.03 μM): −18%
HCT-116 % Inhibition at 0.1 μM (HCT-116 cell line; HCT-116 cells, at 0.1 μM): 2%
HCT-116 5 Inhibition at 0.25 μM (HCT-116 cell line; HCT-116 cells): 36

Nc1nc(NC2CCN(S(=O)(=O)c3ccc(CCCN4CCCC4)nc3)CC2)sc1C(=O)c1c(F)cccc1F [Example I13, 1-(4-Amino-2-{1-[6-(3-pyrrolidin-1-yl-propyl)-pyridine-3-sulfonyl]-piperidin-4-ylamino}-thiazol-5-yl)-1-(2,6-difluoro-phenyl)-methanone Trifluoroacetic Acid Salt]
Ki (CDK2/Cyclin A): 1.3 nM
Ki [1]: 0.45 nM
IC50 (HCT-116 cell line; first HCT-116 column (c4)): 280 nM
IC50 (HCT-116 cell line; second HCT-116 column (c5)): 600 nM

CCOC(=O)CCC(=O)N1CCC(Nc2nc(N)c(C(=O)c3c(F)cccc3F)s2)CC1 [Example Q50]
CDK2 % Inhibition at 0.03 μM (CDK2/Cyclin A; 0.03 μM compound, Table 4): 24%
CDK4 % Inhibition at 0.03 μM ([1]; 0.03 μM compound, Table 4): 42%
HCT-116 % Inhibition at 0.1 μM (HCT-116 cell line; [2]): 7%
HCT-116 % Inhibition at 0.25 μM (HCT-116 cell line; HCT-116, Table 4): 39%

Cc1c[nH]c(-c2ccc(S(=O)(=O)N3CCC(Nc4nc(N)c(C(=O)c5c(F)cccc5F)s4)CC3)cn2)n1 [Example I2, 1-(4-Amino-2-{1-[6-(4-methyl-1H-imidazol-2-yl)-pyridine-3-sulfonyl]-piperidin-4-ylamino}-thiazol-5-yl)-1-(2,6-difluoro-phenyl)-methanone Hydrochloride]
Ki (CDK2/Cyclin A): 0.41 nM
Ki [1]: 0.72 nM
IC50 (HCT-116 cell line; first HCT-116 column (c4)): 240 nM
IC50 (HCT-116 cell line; second HCT-116 column (c5)): 1400 nM

Nc1nc(NC2CCN(S(=O)(=O)c3ccc(F)cc3F)CC2)sc1C(=O)c1c(F)cccc1F [Example P34]
CDK2 % Inhibition at 0.03 μM (CDK2/Cyclin A; 0.03 μM compound, Table 3): 60%
CDK4 % Inhibition at 0.03 μM ([1]; 0.03 μM compound, Table 3): 58%
HCT-116 % Inhibition at 0.1 μM (HCT-116 cell line; [3]): 8%
HCT-116 % Inhibition at 0.25 μM (HCT-116 cell line; HCT-116, Table 3): 23%

Nc1nc(NC2CCN(S(=O)(=O)c3cccc(Cl)c3Cl)CC2)sc1C(=O)c1c(F)cccc1F [Example P39]
CDK2 % Inhibition at 0.03 μM (CDK2/Cyclin A; 0.03 μM compound, Table 3): 24%
CDK4 % Inhibition at 0.03 μM ([1]; 0.03 μM compound, Table 3): 42%
HCT-116 % Inhibition at 0.1 μM (HCT-116 cell line; [3]): 0%
HCT-116 % Inhibition at 0.25 μM (HCT-116 cell line; HCT-116, Table 3): 25%

CN1CCC[C@@H](Oc2ccc(S(=O)(=O)N3CCC(Nc4nc(N)c(C(=O)c5c(F)cccc5F)s4)CC3)cn2)C1 [Example H26, (4-Amino-2-{1-[6-(1-methyl-piperidin-3R-yloxy)-pyridine-3-sulfonyl]-piperidin-4-ylamino}-thiazol-5-yl)-(2,6-difluoro-phenyl)-methanone Hydrochloride]
Ki (CDK2/Cyclin A): 0.37 nM
Ki [1]: 1.3 nM
IC50 (HCT-116 cell line; first HCT-116 column (c4)): 22 nM
IC50 (HCT-116 cell line; second HCT-116 column (c5)): 80 nM

CCN(CC)CCOc1ccc(S(=O)(=O)N2CCC(Nc3nc(N)c(C(=O)c4c(F)cccc4F)s3)CC2)cn1 [Example H18, (4-Amino-2-{1-[6-(2-diethylamino-ethoxy)-pyridine-3-sulfonyl]-piperidin-4-ylamino}-thiazol-5-yl)-(2,6-difluoro-phenyl)-methanone Trifluoroacetic Acid Salt]
Ki (CDK2/Cyclin A): 1.6 nM
Ki [1]: 0.3 nM
IC50 (HCT-116 cell line; first HCT-116 column (c4)): 55 nM
IC50 (HCT-116 cell line; second HCT-116 column (c5)): > 500 nM

Nc1nc(NC2CCN(C(=S)Oc3ccc(F)cc3)CC2)sc1C(=O)c1c(F)cccc1F [Example R85]
CDK2 % Inhibition at 0.03 μM (CDK2/Cyclin A; at 0.03 μM): 90%
CDK4 % Inhibition at 0.03 μM ([1]; at 0.03 μM): 81%
HCT-116 % Inhibition at 0.1 μM (HCT-116 cell line; HCT-116 cells, at 0.1 μM): 0%
HCT-116 5 Inhibition at 0.25 μM (HCT-116 cell line; HCT-116 cells): 47

CCCCC(C)C(=O)N1CCC(Nc2nc(N)c(C(=O)c3c(F)cccc3F)s2)CC1 (centres unmarked) [Example R167]
CDK2 % Inhibition at 0.03 μM (CDK2/Cyclin A; at 0.03 μM): −2%
CDK4 % Inhibition at 0.03 μM ([1]; at 0.03 μM): 11%
HCT-116 % Inhibition at 0.1 μM (HCT-116 cell line; HCT-116 cells, at 0.1 μM): 0%
HCT-116 5 Inhibition at 0.25 μM (HCT-116 cell line; HCT-116 cells): 42

Nc1nc(NC2CCN(S(=O)(=O)c3ccc(Br)s3)CC2)sc1C(=O)c1c(F)cccc1F [Example F50, 1-{4-Amino-2-[1-(5-bromo-thiophene-2-sulfonyl)-piperidin4-ylamino]-thiazol-5-yl}1-(2,6-difluoro-phenyl)-methanone]
Ki (CDK2/Cyclin A): 1.1 nM
Ki [1]: 3.2 nM
IC50 (HCT-116 cell line; first HCT-116 column (c4)): 280 nM
IC50 (HCT-116 cell line; second HCT-116 column (c5)): 2600 nM

Cc1noc(C)c1C(=O)N1CCC(Nc2nc(N)c(C(=O)c3c(F)cccc3F)s2)CC1 [Example R25]
CDK2 % Inhibition at 0.03 μM (CDK2/Cyclin A; at 0.03 μM): −9%
CDK4 % Inhibition at 0.03 μM ([1]; at 0.03 μM): 22%
HCT-116 % Inhibition at 0.1 μM (HCT-116 cell line; HCT-116 cells, at 0.1 μM): 0%
HCT-116 5 Inhibition at 0.25 μM (HCT-116 cell line; HCT-116 cells): 43

Nc1nc(NC2CCN(C(=O)Nc3ccccc3C(F)(F)F)CC2)sc1C(=O)c1c(F)cccc1F [Example O10]
CDK2 % Inhibition At 0.03 μM (CDK2/Cyclin A; 0.03 μM compound): 28%
CDK4 % Inhibition at 0.03 μM ([1]; 0.03 μM compound, Table 2): 5%
HCT-116 % Inhibition at 0.25 μM (HCT-116 cell line; HCT-116, Table 2): 0%

CCCCC(CC)COC(=O)N1CCC(Nc2nc(N)c(C(=O)c3c(F)cccc3F)s2)CC1 (centres unmarked) [Example Q7]
CDK2 % Inhibition at 0.03 μM (CDK2/Cyclin A; 0.03 μM compound, Table 4): −42%
CDK4 % Inhibition at 0.03 μM ([1]; 0.03 μM compound, Table 4): 5%
HCT-116 % Inhibition at 0.1 μM (HCT-116 cell line; [2]): 5%
HCT-116 % Inhibition at 0.25 μM (HCT-116 cell line; HCT-116, Table 4): 39%
